Test results reported in patent US7655420B2, “Methods to increase or decrease bone density” (Celltech R & D, Inc., priority 2002, dated 2010).
“Also recorded” adds a separate entry of the source.

Columns and labels:
[1] = tested on: SOST expression; assay: BMP-6 induction of SOST expression in hMSC cells with test compounds (RT-PCR); assay type: cell-based, human; settings: for Results (effect on BMP-6 induction of SOST expression): BMP-6, 72 hrs; for induction of SOST expression by BMP-6 (BMP-induced SOST expression): 72 hrs, no single concentration stated in the sentence
Protocol: The previous example illustrates that SOST expression was enhanced by bone morphogenetic proteins and modulated by steroids such as dexamethasone. In this example, human MSC cells were incubated with bone morphogenetic proteins in the presence of various test agents to determine whether other steroids and compounds could affect the BMP-induction of SOST. SOST expression was monitored by reverse transcriptase polymerase chain reaction (RT-PCR).
Human mesenchymal cells (hMSCs) were plated in regular growth media containing 2% FCS and treated with BMP-6 either alone or in combination with the test compounds. The cells were harvested 72 hrs later and RNA was prepared for RT-PCR analysis of SOST expression.

[2] = tested on: caspase activity in hMSC cells; assay: apoptosis of hMSC cells by caspase activity (Homogeneous Caspase ELISA); assay type: cell-based, human; settings: for human sclerostin-induced increase in caspase activity, effect of caspase inhibitors: hMSC cells, 24 hrs, Roche ELISA; for caspase activity: hMSC in osteoblast-inducing media, 20 μg/ml sclerostin or other protein, 24 hours
Protocol: Human mesenchymal (hMSC) cells were plated in Osteoblast-inducing media (Biowhittaker's MSCGM medium supplemented with 100 nM dexamethasone, 50 μg/ml ascorbic acid, and 10 mM β-glycerophosphate) at a density of 10,000 cells/cm^2 in 96-well dishes.
For apoptosis assays, cells were treated with sclerostin or commercially available preparations of the BMP antagonists noggin, chordin, gremlin or twisted gastrulation (Tsg) for 24 hours prior to assay for caspase activity. In some experiments, cells were treated for various times with a partially purified preparation of baculovirus-expressed human sclerostin (0 to 30 μg/ml) or an equal volume of a protein preparation purified from Sf9 conditioned media (control) in the absence or presence of Calbiochem's caspase inhibitors. Cells were harvested and processed for apoptosis assays using the Homogeneous Caspase ELISA (Roche) or Cell Death (Histone-Associated DNA Fragmentation, Roche).

Molecule: O=C1C=C(S(=O)(=O)O)c2ccccc2C1=O [1,2-napthoquinone-4-sulfate]
- Results (effect on BMP-6 induction of SOST expression) ([1]; compound at 1 × 10^−6 M): No Effect
- Results (effect on BMP-6 induction of SOST expression) ([1]; compound at 5 × 10^−6 M): No Effect

Molecule: COC(=O)C[C@H](NC(=O)[C@H](C)NC(=O)[C@@H](NC(=O)[C@H](Cc1ccc(O)cc1)NC(=O)OCc1ccccc1)C(C)C)C(=O)CF [Caspase-1, Inhibitor VI, reference compound]
- human sclerostin-induced increase in caspase activity, effect of caspase inhibitors [2]: blocked
- human sclerostin-induced increase in caspase activity, effect of caspase inhibitors ([2]; listed as Cas-1): efficiently blocked
- human sclerostin-induced increase in caspase activity, effect of caspase inhibitors ([2]; listed as Caspase-1 inhibitor): effectively blocked

Molecule: CC(=O)N[C@@H](CC(=O)O)C(=O)N[C@@H](CCC(=O)O)C(=O)N[C@H](C(=O)N[C@H](C=O)CC(=O)O)C(C)C [Caspase-3, Inhibitor I, reference compound]
- human sclerostin-induced increase in caspase activity, effect of caspase inhibitors [2]: blocked
- human sclerostin-induced increase in caspase activity, effect of caspase inhibitors ([2]; listed as Cas-3): efficiently blocked
- human sclerostin-induced increase in caspase activity, effect of caspase inhibitors ([2]; listed as Caspase-3 inhibitor): effectively blocked

Molecule: CC1(C)O[C@@H]2C[C@H]3[C@@H]4C[C@H](F)C5=CC(=O)C=C[C@]5(C)[C@@]4(F)[C@@H](O)C[C@]3(C)[C@]2(C(=O)CO)O1 [Fluocinolone acetonide]
- induction of SOST expression by BMP-6 (BMP-induced SOST expression) [1]: blocks
- Results (effect on BMP-6 induction of SOST expression) ([1]; compound at 1 × 10^−7 M): Inhibition
- Results (effect on BMP-6 induction of SOST expression) ([1]; compound at 1 × 10^−7 M, listed as Fluo): blocked
- Results (effect on BMP-6 induction of SOST expression) ([1]; compound at 1 × 10^−7 M, listed as fluocinolone acetonide): effectively blocked

Molecule: C[C@]12CC[C@@H]3c4ccc(O)cc4C[C@@H](CCCCCCCCC[S+]([O-])CCCC(F)(F)C(F)(F)F)[C@H]3[C@@H]1CC[C@@H]2O (stereo partly shown) [ICI 182,780]
- Results (effect on BMP-6 induction of SOST expression) ([1]; compound at 1 × 10^−6 M): minimal effects; also recorded: No Effect

Molecule: CC[C@H](C)C(=O)O[C@H]1C[C@@H](C)C=C2C=C[C@H](C)[C@H](CC[C@@H]3C[C@@H](O)CC(=O)O3)[C@H]21 [Lovastatin/Mevinolin, Lovastatin]
- Results (effect on BMP-6 induction of SOST expression) ([1]; compound at 1 × 10^−7 M): No Effect
- Results (effect on BMP-6 induction of SOST expression) ([1]; compound at 1 × 10^−7 M, listed as lovastatin): minimal effects

Molecule: COc1cccc(-c2cc(=O)c3ccccc3o2)c1N [PD98059]
- Results (effect on BMP-6 induction of SOST expression) ([1]; compound at 2 × 10^−6 M): No Effect

Molecule: CCCCC[C@H](O)/C=C/[C@H]1[C@H](O)CC(=O)[C@@H]1C/C=C\CCCC(=O)O [Prostaglandin E2]
- induction of SOST expression by BMP-6 (BMP-induced SOST expression) [1]: blocks
- Results (effect on BMP-6 induction of SOST expression) ([1]; compound at 1 × 10^−6 M): Inhibition
- Results (effect on BMP-6 induction of SOST expression) ([1]; compound at 1 × 10^−6 M, listed as PGE2): blocked
- Results (effect on BMP-6 induction of SOST expression) ([1]; compound at 1 × 10^−6 M, listed as prostaglandin E2): effectively blocked
- Results (effect on BMP-6 induction of SOST expression) ([1]; compound at 1 × 10^−7 M): Inhibition

Molecule: CCc1[nH]c(-c2ccc(OC)cc2)nc1-c1ccncc1 [SB202474]
- Results (effect on BMP-6 induction of SOST expression) ([1]; compound at 2 × 10^−6 M): No Effect

Molecule: C[S+]([O-])c1ccc(-c2nc(-c3ccncc3)c(-c3ccc(F)cc3)[nH]2)cc1 (stereo not shown) [SB203580]
- Results (effect on BMP-6 induction of SOST expression) ([1]; compound at 2 × 10^−6 M): No Effect

Molecule: CC(=O)S[C@@H]1CC2=CC(=O)CC[C@]2(C)[C@H]2CC[C@@]3(C)[C@@H](CC[C@@]34CCC(=O)O4)[C@H]12 [Spironolactone]
- Results (effect on BMP-6 induction of SOST expression) ([1]; compound at 1 × 10^−6 M): No Effect
- Results (effect on BMP-6 induction of SOST expression) ([1]; compound at 1 × 10^−7 M): No Effect

Molecule: C[C@H](CCC(=O)NCCS(=O)(=O)O)[C@H]1CC[C@H]2[C@@H]3[C@@H](O)C[C@@H]4C[C@H](O)CC[C@]4(C)[C@H]3CC[C@]12C [Tauroursodeoxycholic acid]
- Results (effect on BMP-6 induction of SOST expression) ([1]; compound at 2 × 10^−6 M): No Effect
- Results (effect on BMP-6 induction of SOST expression) ([1]; compound at 2 × 10^−6 M, listed as tauroursodeoxycholic acid): minimal effects
- Results (effect on BMP-6 induction of SOST expression) ([1]; compound at 2 × 10^−7 M): No Effect

Molecule: C[C@]12C=CC(=O)C=C1CC[C@H]1[C@@H]3C[C@@H](O)[C@](O)(C(=O)CO)[C@@]3(C)C[C@H](O)[C@@]12F [Triamcinolone]
- induction of SOST expression by BMP-6 (BMP-induced SOST expression) [1]: blocks
- Results (effect on BMP-6 induction of SOST expression) ([1]; compound at 1 × 10^−7 M): blocked; also recorded: Inhibition
- Results (effect on BMP-6 induction of SOST expression) ([1]; compound at 1 × 10^−7 M, listed as triamcinolone): blocked

Molecule: Parathyroid Hormone (1-34): Calciotrophic Peptide (SVSEIQLMHNLGKHLNSMERVEWLRKKLQDVHNF; Parathyroid hormone; UniProt P01270 32-65, looked up, fragment)
- Results (effect on BMP-6 induction of SOST expression) ([1]; compound at 1 × 10^−7 M): No Effect

B1: gremlin: commercially available BMP antagonist (protein, UniProt O60565 25-184, looked up)
Gremlin-1: KKKGSQGAIPPPDKAQHNDSEQTQSPQQPGSRNRGRGQGRGTAMPGEEVLESSQEALHVTERKYLKRDWCKTQPLKQTIHEEGCNSRTIINRFCYGQCNSFYIPRHIRKEEGSFQSCSFCKPKKFTTMMVTLNCPELQPPTKKKRVTRVKQCRCISIDLD
- caspase activity [2]: no increase; also recorded: no significant effect

B2: inactivated sclerostin: inactive preparation of sclerostin, as determined by lack of effects in other biological and biochemical assays (protein, UniProt Q9BQB4 24-213, looked up)
Sclerostin: QGWQAFKNDATEIIPELGEYPEPPPELENNKTMNRAENGGRPPHHPFETKDVSEYSCRELHFTRYVTDGPCRSAKPVTELVCSGQCGPARLLPNAIGRGKWWRPSGPDFRCIPDRYRAQRVQLLCPGGEAPRARKVRLVASCKCKRLTRFHNQSELKDFGTEAARPQKGRKPRPRARSAKANQAELENAY
modifications: inactivated preparation
- caspase activity [2]: no significant effect
- caspase activity ([2]; listed as inactive preparation of sclerostin): did not significantly affect

B3: Tsg: twisted gastrulation, commercially available BMP antagonist (protein, UniProt Q9GZX9 26-223, looked up)
Twisted gastrulation protein …: CNKALCASDVSKCLIQELCQCRPGEGNCSCCKECMLCLGALWDECCDCVGMCNPRNYSDTPPTSKSTVEELHEPIPSLFRALTEGDTQLNWNIVSFPVAEELSHHENLVSFLETVNQPHHQNVSVPSNNVHAPYSSDKEHMCTVVYFDDCMSIHQCKISCESMGASKYRWFHNACCECIGPECIDYGSKTVKCMNCMF
- caspase activity [2]: no increase; also recorded: no significant effect

B4: chordin: commercially available BMP antagonist (protein, UniProt Q9H2X0 27-955, looked up)
Chordin: AGPEPPVLPIRSEKEPLPVRGAAGCTFGGKVYALDETWHPDLGEPFGVMRCVLCACEAPQWGRRTRGPGRVSCKNIKPECPTPACGQPRQLPGHCCQTCPQERSSSERQPSGLSFEYPRDPEHRSYSDRGEPGAEERARGDGHTDFVALLTGPRSQAVARARVSLLRSSLRFSISYRRLDRPTRIRFSDSNGSVLFEHPAAPTQDGLVCGVWRAVPRLSLRLLRAEQLHVALVTLTHPSGEVWGPLIRHRALAAETFSAILTLEGPPQQGVGGITLLTLSDTEDSLHFLLLFRGLLEPRSGGLTQVPLRLQILHQGQLLRELQANVSAQEPGFAEVLPNLTVQEMDWLVLGELQMALEWAGRPGLRISGHIAARKSCDVLQSVLCGADALIPVQTGAAGSASLTLLGNGSLIYQVQVVGTSSEVVAMTLETKPQRRDQRTVLCHMAGLQPGGHTAVGICPGLGARGAHMLLQNELFLNVGTKDFPDGELRGHVAALPYCGHSARHDTLPVPLAGALVLPPVKSQAAGHAWLSLDTHCHLHYEVLLAGLGGSEQGTVTAHLLGPPGTPGPRRLLKGFYGSEAQGVVKDLEPELLRHLAKGMASLMITTKGSPRGELRGQVHIANQCEVGGLRLEAAGAEGVRALGAPDTASAAPPVVPGLPALAPAKPGGPGRPRDPNTCFFEGQQRPHGARWAPNYDPLCSLCTCQRRTVICDPVVCPPPSCPHPVQAPDQCCPVCPEKQDVRDLPGLPRSRDPGEGCYFDGDRSWRAAGTRWHPVVPPFGLIKCAVCTCKGGTGEVHCEKVQCPRLACAQPVRVNPTDCCKQCPVGSGAHPQLGDPMQADGPRGCRFAGQWFPESQSWHPSVPPFGEMSCITCRCGAGVPHCERDDCSLPLSCGSGKESRCCSRCTAHRRPAPETRTDPELEKEAEGS
- caspase activity [2]: no increase; also recorded: no significant effect
